17 compounds from PubChem BioAssay (NCI) can be followed below.

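Assay format: 96-well plates, 48-hour exposure. TGI: total growth inhibition.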

Some test systems named below: MDA-N; SF-539 CNS; CAKI-1 renal; SK-OV-3 ovarian; NCI-H460 lung; NCI-H522 lung; SF-268 CNS; SNB-19 CNS; HCC-2998 colon.
Assay in all cases: NCI-60 cell line screen, 48 h

`CN(C)CCN1C(=O)CC[C@@]2(C)C1=CC[C@@H]1[C@@H]2CC[C@@]2(C)[C@H]1CC[C@]2(C)O`: the TGI with MDA-N, with SF-539 CNS, in the assay with CAKI-1 renal, in the assay on SK-OV-3 ovarian, in the assay with NCI-H460 lung and with NCI-H522 lung was greater than 100 µM in each case. Moreover, the TGI in the assay with SF-268 CNS and in the assay on SNB-19 CNS was greater than 100 µM throughout.
As for `CC1=C2C(=O)O[C@@H](c3ccoc3)[C@]2(C)CCC1=O`, the TGI with MDA-N, with SF-539 CNS, in the assay with CAKI-1 renal, in the assay on SK-OV-3 ovarian, with NCI-H460 lung and with SNB-19 CNS was greater than 100 µM throughout. The compound further came in with a TGI with HCC-2998 colon greater than 100 µM.
In the case of `N#C/C(=C1\N=C(c2ccccc2O)Oc2ccccc21)c1ccc([N+](=O)[O-])cc1`, the TGI in the assay with MDA-N, with SF-539 CNS, in the assay on CAKI-1 renal, with SK-OV-3 ovarian, in the assay with NCI-H460 lung and with SF-268 CNS was greater than 100 µM each time. The TGI in the assay with SNB-19 CNS and in the assay on HCC-2998 colon was greater than 100 µM throughout.
Take `CN(C)CCOc1ccc(I)cc1Cc1ccccc1`: the TGI with MDA-N was 17.4 µM; in the assay on SF-539 CNS it was 27.8 µM; in the assay with SK-OV-3 ovarian, 33 µM; with NCI-H460 lung it was 26.8 µM; in the assay on NCI-H522 lung, 25 µM; in the assay on SF-268 CNS it was 27.4 µM. Besides, the values for the TGI in the assay with SNB-19 CNS and with HCC-2998 colon were 28 µM and 9.62 µM, respectively.
As to `COC(=O)[C@@H]1C=C[C@@H](C#N)n2c(=O)n(-c3ccccc3)c(=O)n21`, the TGI is 65.3 µM in the assay on SF-539 CNS; greater than 100 µM in the assay on CAKI-1 renal; greater than 100 µM in the assay on SK-OV-3 ovarian; 32.4 µM with NCI-H522 lung; greater than 100 µM in the assay with SF-268 CNS; greater than 100 µM in the assay with SNB-19 CNS. The TGI in the assay with HCC-2998 colon is greater than 100 µM.
For the compound `CCOc1ccc2ccccc2c1NC1=NCCO1`, the TGI with SF-539 CNS is greater than 100 µM; in the assay with SK-OV-3 ovarian, greater than 100 µM; in the assay with NCI-H460 lung it was 57.7 µM; with SF-268 CNS, greater than 100 µM; in the assay on SNB-19 CNS, greater than 100 µM; in the assay with HCC-2998 colon, greater than 100 µM.
Turning to `NS(=O)(=O)c1ccc(NC(=O)c2cc([N+](=O)[O-])cc([N+](=O)[O-])c2)cc1`, the TGI with MDA-N was 47.2 µM; in the assay with SF-539 CNS, greater than 100 µM; with CAKI-1 renal, greater than 100 µM; in the assay with SK-OV-3 ovarian it was greater than 100 µM; in the assay with NCI-H460 lung it was greater than 100 µM; in the assay on SF-268 CNS, greater than 100 µM. Further, the TGI with SNB-19 CNS is greater than 100 µM.
Regarding `Cc1nc2c(o1)C(=O)c1ccccc1C2=NC1CCCCC1N` (stereo unspecified), the TGI in the assay with MDA-N was determined as 0.343 µM; in the assay with SF-539 CNS it was 1.08 µM; in the assay with CAKI-1 renal, 3.12 µM; in the assay on NCI-H460 lung, 3.15 µM; with NCI-H522 lung, 2.33 µM; in the assay with SF-268 CNS it was 3.82 µM. In addition, the TGI in the assay on SNB-19 CNS was determined as 2.1 µM; in the assay with HCC-2998 colon, 3.02 µM.
Take `CCOC(=O)c1cccc(NC(=O)CBr)c1`: the TGI in the assay with MDA-N turned out to be 2.82 µM; with SF-539 CNS, 2.6 µM; in the assay on CAKI-1 renal, 1.16 µM; with SK-OV-3 ovarian it was 3.43 µM; in the assay with NCI-H460 lung, 3.46 µM; in the assay on NCI-H522 lung it was 0.0437 µM. Also, the values for the TGI with SNB-19 CNS and in the assay on HCC-2998 colon were 16.6 µM and 5.28 µM, respectively.
In the case of `CC(=O)OCCC1c2ccccc2-n2nc(-c3ccccc3)c(O)c21` (stereo unspecified), the TGI came out at 33.2 µM in the assay on MDA-N; 44.7 µM in the assay with SF-539 CNS; 33.6 µM in the assay with CAKI-1 renal; 28.3 µM with NCI-H460 lung; 32.3 µM with NCI-H522 lung; 90.6 µM with SF-268 CNS. For the same compound, the TGI was 32.2 µM with SNB-19 CNS and 56 µM in the assay with HCC-2998 colon.
Regarding `COc1ncnc2c1cnn2Cc1cn(COCC(O)CO)nn1` (stereo unspecified), the TGI in the assay on MDA-N was greater than 100 µM; with SF-539 CNS, greater than 100 µM; in the assay on CAKI-1 renal, greater than 100 µM; with SK-OV-3 ovarian, greater than 100 µM; in the assay with NCI-H522 lung it was 26.2 µM; with SF-268 CNS, 35 µM. In addition, the TGI with SNB-19 CNS and with HCC-2998 colon was greater than 100 µM each time.
Turning to `O=C(O)C(Cc1ccc2c(c1)CCC2)(Cc1ccc2c(c1)CCC2)C(=O)O`, the TGI with MDA-N, in the assay on SF-539 CNS, with SK-OV-3 ovarian, with NCI-H460 lung, with NCI-H522 lung and with SF-268 CNS was greater than 100 µM in each case. Besides, the TGI in the assay with SNB-19 CNS and in the assay with HCC-2998 colon was greater than 100 µM in each case.
For `COC(=O)c1ccc2c(c1)CC1(C2)Cc2cc3c(c(C(=O)OC)c2C1)CCCC3` (stereo unspecified), the TGI in the assay with MDA-N, with SF-539 CNS, in the assay with CAKI-1 renal, in the assay on SK-OV-3 ovarian, in the assay with NCI-H460 lung and with NCI-H522 lung was greater than 100 µM throughout. Further, the TGI in the assay on SF-268 CNS and in the assay with HCC-2998 colon was greater than 100 µM each time.
For `Cc1ccc(-c2sc(-c3ccc(C)cc3)c3c2C2CCC3C2)cc1`, the TGI in the assay on MDA-N, in the assay on SF-539 CNS, in the assay with CAKI-1 renal, with SK-OV-3 ovarian, in the assay on NCI-H460 lung and in the assay on NCI-H522 lung was greater than 50 µM each time. Moreover, the TGI with SF-268 CNS and in the assay on SNB-19 CNS was greater than 50 µM each time.
On to `ClC(Cl)(Cl)C1CCOC1n1nc2ccccc2n1` (stereo unspecified), for which the TGI in the assay with MDA-N, with SF-539 CNS, in the assay on CAKI-1 renal, with SK-OV-3 ovarian, in the assay on NCI-H460 lung and in the assay on NCI-H522 lung was greater than 100 µM each time. In addition, the TGI with SF-268 CNS and with HCC-2998 colon was greater than 100 µM each time.
Take `CCCCCCCCCCCCCCCC(=O)ON1C(=S)NC(C)(c2ccccc2)C1=S` (stereo unspecified): the TGI in the assay with MDA-N, in the assay with SF-539 CNS, in the assay on CAKI-1 renal, in the assay with SK-OV-3 ovarian, in the assay on NCI-H460 lung and in the assay with SF-268 CNS was greater than 100 µM each time. Besides, the TGI in the assay with SNB-19 CNS and with HCC-2998 colon was greater than 100 µM throughout.
Take `O=C(O)CCC(NC(=O)c1ccc(Nc2nc3ccccc3nc2C(=O)O)cc1)C(=O)O` (stereo unspecified): the TGI in the assay with MDA-N, in the assay with SF-539 CNS, in the assay on CAKI-1 renal, in the assay on SK-OV-3 ovarian, in the assay with NCI-H522 lung and in the assay on SF-268 CNS was greater than 100 µM in each case. The TGI in the assay with SNB-19 CNS and with HCC-2998 colon was greater than 100 µM throughout.
